Drawing on US20150352108A1, “AMINO-PYRIMIDINE COMPOUNDS AS INHIBITORS OF TBK1 AND/OR IKK EPSILON” (Alzheimer's Institute of America, priority 2009, published 2015), this text covers IC50 for 16 compounds.

The test system of experiment [1] is IKKε-mediated phosphorylation of IRF3. The experiment can be described thus: In-situ phosphorylation of IRF3 (pIRF3 Ser396 ELISA) in HEK293T cells cotransfected with IRF3 and IKKε. The class given is cell-based. Conditions: Homo sapiens, HEK-293T. As for the experimental part:
HEK293T cells were cotransfected in a 10-cm dish with IRF3 and IKKε expression plasmids using Lipofectamine 2000 (Invitrogen, Carlsbad, Calif.). The following day, cells were replated at 20,000 per well in 96-well plates and treated with test compounds (compounds according to Formula I) for 20 hours. Cell lysates were prepared and analyzed using an ELISA for phospho-Ser396 (anti-IRF3 capture antibody, Santa Cruz Biotechnology, Inc., Santa Cruz, Calif.; anti-p-Ser396 IRF3 detection antibody, Cell Signaling, Danvers, Mass.). pIRF3 levels in compound treated cells were normalized to DMSO treated cells (no compound). Cell viability was assayed in a parallel set of plates to monitor cytotoxic effects of the test compounds (CellTiter-Glo, Promega, Inc., Madison, Wis.). TBK1 activity was tested by Western blotting using a phospho-specific IRF7 antibody. Similar to above, HEK293T cells were transfected with IRF7 and TBK1 expression plasmids. Cells were seeded in 12-well plates at 150,000 per well and treated overnight with test compounds. Protein lysates were prepared and processed for Western blotting followed by detection using a phosphor-Ser477/Ser479 IRF7 antibody (BD Biosciences, San Jose, Calif.)
A general note: An ELISA detects its analyte on a solid surface through an enzyme-linked reagent.

For experiment [2], the target named is T1, IKKε (Homo sapiens, UniProt Q14164).
T1 construct: His-tag; made in house; host or cells: Sf9 insect cells
T1 sequence (Q14164 1-716): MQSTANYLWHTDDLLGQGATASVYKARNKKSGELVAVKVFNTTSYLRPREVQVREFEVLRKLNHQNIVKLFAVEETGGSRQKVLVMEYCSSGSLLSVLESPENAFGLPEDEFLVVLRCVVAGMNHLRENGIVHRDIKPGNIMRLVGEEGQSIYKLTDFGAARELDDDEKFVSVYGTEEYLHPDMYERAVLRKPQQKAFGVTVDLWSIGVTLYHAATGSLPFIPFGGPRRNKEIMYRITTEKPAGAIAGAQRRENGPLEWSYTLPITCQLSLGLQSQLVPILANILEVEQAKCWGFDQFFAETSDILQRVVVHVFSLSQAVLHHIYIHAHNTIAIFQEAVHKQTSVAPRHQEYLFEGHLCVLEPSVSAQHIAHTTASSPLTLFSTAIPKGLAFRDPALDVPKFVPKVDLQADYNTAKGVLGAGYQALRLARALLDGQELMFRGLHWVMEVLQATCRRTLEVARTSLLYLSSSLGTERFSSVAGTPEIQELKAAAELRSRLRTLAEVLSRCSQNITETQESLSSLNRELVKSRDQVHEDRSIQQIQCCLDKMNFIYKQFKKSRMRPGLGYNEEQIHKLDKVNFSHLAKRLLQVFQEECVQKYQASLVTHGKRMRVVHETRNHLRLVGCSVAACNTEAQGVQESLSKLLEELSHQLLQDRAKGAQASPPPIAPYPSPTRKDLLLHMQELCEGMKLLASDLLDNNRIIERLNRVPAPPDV
The experiment can be described thus: In-vitro IKKε kinase assay ([γ33]ATP filter-plate). It is filed as biochemical. The gist of the method: (§1)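 His-tagged IKKε and TBK1 from Sf9 cells were assayed with myelin basic protein or casein and [γ33]ATP at 2×Km ATP (32 μM for IKKε, 60 μM for TBK1). Enzyme was 0.1 or 0.015 μg/ml for IKKε and 0.1 or 0.02 μg/ml for TBK1 (normal/sensitized). Reactions ran 30-45 min, were filter-captured, scintillation-counted, and normalized to DMSO after background subtraction.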

In experiment [3] the target is T2, TBK1 (Homo sapiens, UniProt Q9UHD2).
T2 construct: His-tag; made in house; host or cells: Sf9 insect cells
T2 sequence (Q9UHD2 1-729): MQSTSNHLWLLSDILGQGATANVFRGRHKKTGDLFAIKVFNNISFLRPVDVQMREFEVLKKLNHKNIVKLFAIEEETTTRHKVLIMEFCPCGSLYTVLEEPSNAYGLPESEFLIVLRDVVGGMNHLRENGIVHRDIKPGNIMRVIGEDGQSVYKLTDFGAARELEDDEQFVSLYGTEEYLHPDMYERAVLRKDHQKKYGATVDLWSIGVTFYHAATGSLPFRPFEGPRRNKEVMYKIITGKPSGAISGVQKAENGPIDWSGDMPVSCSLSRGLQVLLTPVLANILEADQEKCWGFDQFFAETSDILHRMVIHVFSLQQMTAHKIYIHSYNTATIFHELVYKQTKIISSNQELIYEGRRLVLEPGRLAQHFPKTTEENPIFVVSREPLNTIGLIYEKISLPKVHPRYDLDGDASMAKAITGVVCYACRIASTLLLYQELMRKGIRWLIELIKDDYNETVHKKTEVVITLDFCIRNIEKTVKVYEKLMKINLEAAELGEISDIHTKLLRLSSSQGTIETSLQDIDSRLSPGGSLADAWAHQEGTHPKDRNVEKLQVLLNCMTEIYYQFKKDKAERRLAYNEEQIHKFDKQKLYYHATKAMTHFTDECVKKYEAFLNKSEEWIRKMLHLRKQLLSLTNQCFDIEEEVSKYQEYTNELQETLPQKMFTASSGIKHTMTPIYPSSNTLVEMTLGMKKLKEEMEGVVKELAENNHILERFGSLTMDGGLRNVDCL
The experiment can be described thus: In-vitro TBK1 kinase assay ([γ33]ATP filter-plate). The class given is biochemical. The gist of the method: as §1

Setting [4] is: HEK293T cells, 20 hours, text bins, read-out: IC50 for inhibition of the in-situ IKKε-mediated phosphorylation of IRF3.
Setting [5] is: text bins, read-out: IC50 for inhibition of the kinase activity of IKKε.
The mark [6] stands for this setting: text bins, read-out: IC50 for inhibition of the kinase activity of TBK1.

Broadly, the IC50 is the point on the concentration scale where inhibition reaches its midpoint.

Where two headings read alike, the source gives them in different places. Where only a bound is given, the exact number is not on record here.

Turning to `COc1ccc(Nc2nccc(-c3ccc(OC4CCOCC4)c(C#N)c3)n2)cc1OCCCC1CCNCC1` [compound 522, 5-[2-({4-methoxy-3-[3-(piperidin-4-yl)propoxy]phenyl}amino)pyrimidin-4-yl]-2-(tetrahydro-2H-pyran-4-yloxy)benzonitrile], the IC50 in experiment [1] (setting [4]) is less than 100 nM; in experiment [2] (setting [5]), less than 5 nM; in experiment [3] (setting [6]), less than 10 nM.
Consider `N#Cc1cc(-c2ccnc(Nc3ccc(CNC(=O)CO)cc3)n2)ccc1OC1CCOCC1` [compound 495, N-[4-({4-[3-cyano-4-(tetrahydro-2H-pyran-4-yloxy)phenyl]pyrimidin-2-yl}amino)benzyl]-2-hydroxyacetamide], for which the IC50 in experiment [1] (setting [4]) was less than 100 nM; in experiment [2] (setting [5]) it was less than 5 nM; in experiment [3] (setting [6]) it was less than 10 nM.
The matching figures for `CC(C)C(=O)Nc1ccc(-c2ccnc(Nc3ccc(CC(=O)N4CCN(C(C)C)CC4)cc3)n2)cc1C#N` [compound 418, N-(2-cyano-4-{2-[(4-{2-oxo-2-[4-(propan-2-yl)piperazin-1-yl]ethyl}phenyl)amino]pyrimidin-4-yl}phenyl)-2-methylpropanamide]: less than 100 nM, 5 to 50 nM and less than 10 nM.
Take `CCN(CC)CCOc1cc(Nc2nccc(-c3ccc(OC4CCOCC4)c(C#N)c3)n2)ccc1F` [compound 586, 5-[2-({3-[2-(Diethylamino)ethoxy]-4-fluorophenyl}amino)pyrimidin-4-yl]-2-(tetrahydro-2H-pyran-4-yloxy)benzonitrile]: the IC50 in experiment [1] (setting [4]) is 100 to 250 nM; in experiment [2] (setting [5]), less than 5 nM; in experiment [3] (setting [6]), less than 10 nM.
`COc1cc(Nc2nccc(-c3ccc(OC4CCOCC4)c(C#N)c3)n2)ccc1S(=O)(=O)NCCCN1CCOCC1` [Example 176]: the IC50 in experiment [1] (HEK293T cells in culture, Table 3, read-out: pIRF3 ELISA IC50) is 12.5 nM; in experiment [1] (setting [4]) it was less than 100 nM; in experiment [2] (Table 3, read-out: IKKε IC50), 0.9 nM; in experiment [2] (setting [5]), less than 5 nM; in experiment [3] (Table 3, read-out: TBK1 IC50) it was 0.3 nM; in experiment [3] (setting [6]) it was less than 10 nM.
As to `CCN(CC)CCOc1cc(Nc2nccc(-c3ccc(OC4CCOCC4)c(C#N)c3)n2)ccc1C` [compound 618, 5-[2-({3-[2-(Diethylamino)ethoxy]-4-methylphenyl}amino)pyrimidin-4-yl]-2-(tetrahydro-2H-pyran-4-yloxy)benzonitrile], the figures for the half-inhibitory concentration (IC50) in experiment [1] (setting [4]), in experiment [2] (setting [5]) and in experiment [3] (setting [6]) were less than 100 nM, less than 5 nM and less than 10 nM, respectively.
The corresponding values for `N#Cc1cc(-c2ccnc(Nc3ccc(N4CCOCC4)cc3)n2)ccc1OC1CCN(C=O)CC1` [Example 242, 2-[(1-formylpiperidin-4-yl)oxy]-5-(2-{[4-(morpholin-4-yl)phenyl]amino}pyrimidin-4-yl)benzonitrile] are 250 to 500 nM, less than 5 nM and less than 10 nM.
The matching figures for `COc1cc(Nc2nccc(-c3ccc(OC4CCOCC4)c(C#N)c3)n2)ccc1CN1CCN(C)CC1` [compound 479, 5-[2-({3-Methoxy-4-[(4-methylpiperazin-1-yl)methyl]phenyl}amino)pyrimidin-4-yl]-2-(tetrahydro-2H-pyran-4-yloxy)benzonitrile]: less than 100 nM, less than 5 nM and less than 10 nM.
For the compound `CC(C)N1CCN(CCOc2cc(Nc3nccc(-c4ccc(OC5CCOCC5)c(C#N)c4)n3)ccc2F)CC1` [compound 650, 5-{2-[(4-Fluoro-3-{2-[4-(propan-2-yl)piperazin-1-yl]ethoxy}phenyl)amino]pyrimidin-4-yl}-2-(tetrahydro-2H-pyran-4-yloxy)benzonitrile], the IC50 in experiment [1] (setting [4]) was less than 100 nM; in experiment [2] (setting [5]), less than 5 nM; in experiment [3] (setting [6]) it was less than 10 nM.
The matching figures for `COc1cc(Nc2nccc(-c3ccc(OC4CCOCC4)c(C#N)c3)n2)ccc1C(=O)N(C)C1CCN(C)C1` (stereo not shown) [compound 385, 4-({4-[3-cyano-4-(tetrahydro-2H-pyran-4-yloxy)phenyl]pyrimidin-2-yl}amino)-2-methoxy-N-methyl-N-(1-methylpyrrolidin-3-yl)benzamide]: less than 100 nM, less than 5 nM and less than 10 nM.
As to `COc1cc(Nc2nccc(-c3ccc(OC4CCOCC4)c(C#N)c3)n2)ccc1OCCOCCN` [Example 21, 5-[2-({4-[2-(2-aminoethoxy)ethoxy]-3-methoxyphenyl}amino)pyrimidin-4-yl]-2-(tetrahydro-2H-pyran-4-yloxy)benzonitrile], the IC50 in experiment [1] (setting [4]) is less than 100 nM; in experiment [2] (setting [5]), less than 5 nM; in experiment [3] (setting [6]), less than 10 nM.
The matching figures for `CCN1CCN(CCCOc2cc(Nc3nccc(-c4ccc(OC5CCOCC5)c(C#N)c4)n3)ccc2OC)CC1` [compound 525, 5-[2-({3-[3-(4-ethylpiperazin-1-yl)propoxy]-4-methoxyphenyl}amino)pyrimidin-4-yl]-2-(tetrahydro-21H-pyran-4-yloxy)benzonitrile]: less than 100 nM, less than 5 nM and less than 10 nM.
The corresponding values for `COc1cc(Nc2nccc(-c3ccc(OC4CCOCC4)c(C#N)c3)n2)ccc1C(=O)N1CCN(C(C)C)CC1` [compound 503, 5-{2-[(3-methoxy-4-{[4-(propan-2-yl)piperazin-1-yl]carbonyl}phenyl)amino]pyrimidin-4-yl}-2-(tetrahydro-2H-pyran-4-yloxy)benzonitrile] are less than 100 nM, less than 5 nM and less than 10 nM.
The matching figures for `CN(C)S(=O)(=O)Cc1ccc(Nc2nccc(-c3ccc(OC4CCOCC4)c(C#N)c3)n2)cc1` [compound 401, 1-[4-({4-[3-Cyano-4-(tetrahydro-2H-pyran-4-yloxy)phenyl]pyrimidin-2-yl}amino)phenyl]-N,N-dimethylmethane-sulfonamide]: less than 100 nM, less than 5 nM and less than 10 nM.
For `CN(C)CCN(C)c1cccc(Nc2nccc(-c3ccc(OC4CCOCC4)c(C#N)c3)n2)c1` [compound 661], the IC50 was less than 100 nM in experiment [1] (setting [4]) and less than 5 nM in experiment [2] (setting [5]).
The matching figures for `CN(C)Cc1cccc(Nc2nccc(-c3ccc(O[C@@H]4CCN(C(=O)CO)C4)c(C#N)c3)n2)c1` [compound 642, 5-[2-({3-[(Dimethylamino)methyl]phenyl}amino)pyrimidin-4-yl]-2-{[(3R)-1-(hydroxyacetyl)pyrrolidin-3-yl]oxy}benzonitrile]: less than 100 nM and less than 5 nM.
